The source made the active and inactive calls.
Key:
[1] = microbe, parasite or virus in culture; assay type: functional; conditions: Mycobacterium tuberculosis
[2] = target: T1, Short transient receptor potential channel 4 (Mus musculus, UniProt Q9QUQ5); experiment: calcium entry via TRPC4 opening agents – cell-based, HEK293 TRPC4/mu-opioid, Fluo-4 calcium, dose response (AID 434937); assay type: functional
T1 sequence (Q9QUQ5 whole entry): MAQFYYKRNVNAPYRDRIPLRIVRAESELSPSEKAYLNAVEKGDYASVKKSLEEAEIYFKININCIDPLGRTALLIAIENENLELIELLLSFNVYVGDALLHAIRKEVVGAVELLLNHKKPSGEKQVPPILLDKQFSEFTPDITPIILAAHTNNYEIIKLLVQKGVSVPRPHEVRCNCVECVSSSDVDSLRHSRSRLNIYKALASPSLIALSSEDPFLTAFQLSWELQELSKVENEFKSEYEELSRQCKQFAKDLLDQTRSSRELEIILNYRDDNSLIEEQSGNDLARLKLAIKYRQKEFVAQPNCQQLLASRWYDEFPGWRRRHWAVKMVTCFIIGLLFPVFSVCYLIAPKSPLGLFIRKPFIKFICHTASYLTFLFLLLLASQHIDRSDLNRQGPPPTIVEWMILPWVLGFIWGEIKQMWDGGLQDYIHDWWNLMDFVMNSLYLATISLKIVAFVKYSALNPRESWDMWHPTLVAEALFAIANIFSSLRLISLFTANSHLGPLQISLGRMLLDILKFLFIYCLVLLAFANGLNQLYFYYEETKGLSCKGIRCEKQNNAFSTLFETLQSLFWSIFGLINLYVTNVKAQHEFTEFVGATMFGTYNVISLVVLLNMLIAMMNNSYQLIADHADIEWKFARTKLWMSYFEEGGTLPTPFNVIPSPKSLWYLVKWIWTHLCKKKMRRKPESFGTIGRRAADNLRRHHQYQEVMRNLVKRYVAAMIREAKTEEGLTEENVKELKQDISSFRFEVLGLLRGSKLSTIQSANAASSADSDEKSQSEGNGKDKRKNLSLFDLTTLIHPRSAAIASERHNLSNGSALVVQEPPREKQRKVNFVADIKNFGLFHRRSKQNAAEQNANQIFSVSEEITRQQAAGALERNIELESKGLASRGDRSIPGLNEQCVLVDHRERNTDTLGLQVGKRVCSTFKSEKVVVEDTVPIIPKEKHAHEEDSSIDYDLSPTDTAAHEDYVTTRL

[3] = target: T2, Endoribonuclease toxin MazF (Escherichia coli K-12, UniProt P0AE70); experiment: activation of MazEF endoribonuclease cleavage – biochemical, fluorescence, single-stranded RNA substrate, uHTS hits, dose response (AID 588481); assay type: functional
T2 sequence (P0AE70 whole entry): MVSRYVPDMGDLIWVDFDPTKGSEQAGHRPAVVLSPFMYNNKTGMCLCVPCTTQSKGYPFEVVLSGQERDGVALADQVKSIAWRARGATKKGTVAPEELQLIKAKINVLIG

[4] = viability of uninfected HEp-2 cells – cell-based, HTS, cytotoxicity control for RSV inhibitor project, dose response (AID 2410); assay type: functional; conditions: human respiratory syncytial virus
[5] = target: T2, Endoribonuclease toxin MazF; experiment: substrate-only fluorescence increase artefacts – biochemical, single-stranded RNase substrate, counter-screen for MazEF activator project, dose response (AID 588502); assay type: functional
[6] = NIH3T3 cell viability loss – ATP luminescence, mouse fibroblasts, counter-screen, dose response (AID 2010); assay type: functional, cell-based;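 also: cells exposed to compound for about 90 hours before reading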
cells [7] = experiment: cells
[8] = Trypanosoma cruzi growth suppression in host cells – NIH3T3 host cells, beta-gal luminescence, confirmation (AID 2044); assay type: functional, cell-based;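 also: intracellular parasites grown in NIH/3T3 mouse fibroblasts as host cells; luminescent beta-galactosidase reporter signal from transgenic T. cruzi replicating inside host cells; inhibitors lower the luminescence signal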
Trypsin = Trypsin (Sus scrofa, UniProt P00761); experiment: trypsin protease activity blockade – biochemical, quenched peptide fluorescence, cherry-pick, selectivity assay for Rce1 protease inhibitor project, dose response (AID 488789)
Sequence of Trypsin (P00761 whole entry): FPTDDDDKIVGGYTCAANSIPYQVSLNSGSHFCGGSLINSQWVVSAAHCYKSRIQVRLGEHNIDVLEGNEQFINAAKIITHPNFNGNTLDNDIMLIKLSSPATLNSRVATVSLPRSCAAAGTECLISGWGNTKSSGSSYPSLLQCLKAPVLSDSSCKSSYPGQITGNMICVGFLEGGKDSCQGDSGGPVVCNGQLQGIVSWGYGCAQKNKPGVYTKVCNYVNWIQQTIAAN

CAAX prenyl protease 2 = target: T3, CAAX prenyl protease 2 (Homo sapiens, UniProt Q9Y256); experiment: inhibition of Ras-converting CAAX protease Rce1 – biochemical, yeast membranes, quenched-peptide fluorescence, cherry-pick, dose response (AID 588849)
T3 sequence (Q9Y256 whole entry): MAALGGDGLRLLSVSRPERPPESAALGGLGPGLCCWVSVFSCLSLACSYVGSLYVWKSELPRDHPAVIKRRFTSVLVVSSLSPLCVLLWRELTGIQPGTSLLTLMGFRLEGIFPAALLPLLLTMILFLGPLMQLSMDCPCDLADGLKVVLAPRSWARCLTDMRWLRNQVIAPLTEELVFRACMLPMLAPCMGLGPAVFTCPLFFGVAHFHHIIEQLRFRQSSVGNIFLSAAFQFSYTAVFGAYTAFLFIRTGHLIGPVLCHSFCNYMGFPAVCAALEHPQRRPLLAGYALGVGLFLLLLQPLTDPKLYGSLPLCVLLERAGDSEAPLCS

HEK293 [9] = experiment: inhibition of NOD1-driven NF-kB reporter – cell-based, luminescence, uHTS, primary screen (AID 1578); assay type: functional; conditions: Homo sapiens
[10] = Luminescence Cell-Based Dose Retest to Confirm Inhibitors of Cancer Stem Cells. [Related pubchem assays (depositor defined):AID2717, AID2721]; assay type: functional; conditions: Homo sapiens
HEK293 [11] = experiment: NOD2 signaling inhibitors in MDP-stimulated cells, cell-based, uHTS, luminescence (AID 2001); assay type: functional; conditions: Homo sapiens
HEK293 [12] = experiment: cells; assay type: functional, cell-based; conditions: Homo sapiens
[13] = target: Heat shock protein HSP 90-alpha (Homo sapiens, UniProt P07900); assay type: functional, organism-based
HEK293 [14] = experiment: cells; assay type: functional, cell-based; conditions: Homo sapiens; remark: listed apart in the source
cells [15] = assay type: functional, cell-based
cells [16] = assay type: functional, cell-based; remark: listed apart in the source
Vero [17] = experiment: cells; assay type: functional; conditions: Chlorocebus sabaeus
[18] = Luminescence Cell-Based Dose Confirmation HTS to Identify Activators of 5'UTR Stem-Loop Driven Alpha-Synuclein mRNA Translation in H4 Neuroglioblastoma Cells. [Related pubchem assays: 1829 (Project Summary), 1814 (Primary HTS)]; assay type: functional
H4 = experiment: Luminescence Cell-Based Dose Response HTS to Identify Activators of 5'UTR Stem-Loop Driven Prion Protein mRNA Translation in H4 Neuroglioblastoma Cells. [Related pubchem assays: 1829 (Project Summary), 1814 (Primary HTS)]; assay type: functional; conditions: Homo sapiens
[19] = Luminescence Cell-Based Dose Response HTS to Identify Activators of Luciferase Translation or Activity in H4 […] Cells. [Related pubchem assays: 1829 (Project Summary), 1814 (Primary HTS)]; assay type: functional
Vero [20] = experiment: cells; assay type: functional, cell-based; conditions: Chlorocebus sabaeus

Q: With `O=C(Nc1nnc(-c2ccccc2Cl)o1)c1nc2ccccc2s1` as the compound, how does the CC50 [1] read?
A: The CC50 was > 40 µM (active).

Q: And the EC50 [2]?
A: The EC50 was 4.73 µM (active).

Q: For `Cc1ccc([N+](=O)[O-])cc1N/C=C1\CCCCC1=O`, which EC50 [3] is on record?
A: The EC50 was > 99 µM (inactive).

Q: What about the CC50 [4] of the same compound?
A: Its CC50 is 18.4 µM (active).

Q: And the EC50 [5]?
A: Its EC50 is > 99 µM (inactive).

Q: Which results are given for `CN(C)CCCN(C(=O)c1ccc(S(=O)(=O)N2CCOCC2)cc1)c1nc2ccc(F)cc2s1`?
A: EC50 [6]: > 30 µM (not active); EC50 (cells [7]): 0.02 µM (active); EC50 [8]: < 0.1 µM (active); EC50 [2]: 9.44 µM (active)

Q: With `Nc1ccccc1Oc1ccc2ccccc2c1` as the compound, how does the AC50 (Trypsin) read?
A: The AC50 was 6.89 µM (active).

Q: What about the AC50 (CAAX prenyl protease 2) of the same compound?
A: The AC50 was 5.84 µM (active).

Q: With `CCOC(=O)C(=Cc1ccc(-n2cncn2)cc1)C(=O)OCC` as the compound, how does the EC50 (HEK293 [9]) read?
A: The EC50 was > 20 µM (inactive).

Q: And the AC50 [10]?
A: Its AC50 is 3.47 µM (active).

Q: What about the IC50 (HEK293 [11]) of the same compound?
A: The IC50 was 10.9 µM (inactive).

Q: What about the IC50 (HEK293 [12]) of the same compound?
A: Its IC50 is > 20 µM (inactive).

Q: What about the AC50 [13] of the same compound?
A: The AC50 was 7.37 µM (active).

Q: What about the IC50 (HEK293 [14]) of the same compound?
A: The IC50 was 5.19 µM (active).

Q: Which results are given for `CCOC(=O)C(=Cc1ccc(OCc2ccc([N+](=O)[O-])cc2)c(OC)c1)C(=O)OCC`?
A: EC50 (HEK293 [9]): 10.6 µM (active); EC50 (cells [15]): 70 µM (active); AC50 [10]: 1.79 µM (active); IC50 (HEK293 [11]): 5.14 µM (active); EC50 (cells [16]): > 350 µM (not active); IC50 (HEK293 [12]): 12.8 µM (active); CC50 (Vero [17]): 9.93 µM (active); EC50 [18]: 0.171 µM (active); EC50 (H4): 0.246 µM (active); EC50 [19]: 1.18 µM (active); IC50 (HEK293 [14]): 2.07 µM (active); IC50 (Vero [20]): > 25 µM (active)

Q: What does the source list for `Cc1ccc(S(=O)(=O)NN)c(C)c1N1CCCC1=O`?
A: EC50 [3]: 58.2 µM (inactive); EC50 [5]: 10.6 µM (active)
